Assay results taken from patent US11691984B2, “Compounds and methods for DCAF-mediated protein degradation” (The Scripps Research Institute, priority 2018, dated 2023).

Tests used:
DCAF16 = target: T1, DCAF16 (Homo sapiens, UniProt Q9NXF7); test: LC-MS/MS detection of KB02-PEG0-SLF-modified tryptic peptides on DCAF16; format: binding; conditions: HA-DCAF16-transfected HEK293T, 10 μM, 2 h
T1 construct: endogenously expressed DCAF16 in HEK293T cells; endogenous in cells; host or cells: HEK293T
Experimental: HEK293T cells were transfected with HA-DCAF16 plasmid by PEI transfection reagent for 24 h and treated with DMSO or 10 μM KB02-PEG0-SLF for 2 h. Cells were collected and lysed in 1% NP-40 lysis buffer with complete protease inhibitor cocktail. HA immunoprecipitation was performed with 10 mg of total protein lysates to purify HA-DCAF16. After washing the HA resin three times with IP washing buffer and once with PBS, HA-DCAF16 protein was eluted by heating at 65° C. for 10 min with 8M urea in PBS, then reduced with 12.5 mM DTT at 65° C. for 15 min and alkylated with 25 mM iodoacetamide at 37° C. for 30 min. The protein solution was diluted with PBS to 2M urea and digested with 2 μg trypsin at 37° C. for 6 h. Tryptic peptides were acidified with 5% formic acid and loaded onto a silica capillary column (250 μm) packed with 3 cm of C18 resin (Aqua 5 Phenomenex). Peptides were analyzed on LTQ-Orbitrap Elite mass spectrometer (Thermo Scientific) coupled with a Thermo UltiMate 3000 UHPLC system. Peptides were separated on a capillary column packed with 10 cm of C18 resin (Aqua 5 Phenomenex) and a 5 μm tip. The flow rate was 0.5 μL/min. […]

FLAG-FKBP12_NLS = FLAG-FKBP12_NLS (Homo sapiens, UniProt P62942); test: Western blot of stably expressed FLAG-FKBP12_NLS in MDA-MB-231 cells; format: cell-based; design: expressed in transfected cells; host or cells: HEK293T, MDA-MB-231 and HEK293 DCAF16+/+ and DCAF16-/- clones (lentiviral pCDH-CMV-MCS-EF1-Puro); conditions: 1 μM, 8 hours
Experimental: FLAG-FKBP12 or FLAG-FKBP12_NLS lentivirus was generated by co-transfection of FLAG-FKBP12 or FLAG-FKBP12_NLS, pCMV-dR8.2 and pMD2.G into HEK 293T cells using FuGene 6 transfection reagent (Promega). Virus-containing medium were collected 48 h after transfection, filtered with […] filter, and used to transduce HEK293T and MDA-MB-231 cells in the presence of 10 μg/mL polybrene (Santa Cruz). 72 h after transduction, puromycin (2 μg/mL) was added to cells. HEK293T cells stably expressing FLAG-FKBP12 or FLAG-FKBP12_NLS were obtained after puromycin selection for 7 days. HEK293T cells stably expressing pCDH empty vector were generated in parallel as control.
(§1) Cells were collected and lysed in 1% NP-40 lysis buffer (25 mM Tris-HCl pH 7.4, 150 mM NaCl, 10% glycerol, 1% Nonidet P-40) with complete protease inhibitor cocktail (Roche). Cells were vortexed and sonicated for 5 pulses (40%, 4). The supernatant was collected after centrifugation at 16,000 g for 10 min at 4° C. Protein concentration was determined by DC assay (Bio-Rad). Protein lysate was heated at 95° C. for 5 min in 1× Laemmli sample buffer. Proteins were resolved by 12% or 14% Novex Tris-Glycine Mini Gels (Invitrogen) and transferred to polyvinylidene fluoride (PVDF) membrane (0.2 Bio-Rad). The membrane was blocked with 5% BSA in TBST buffer (0.1% Tween 20, 20 mM Tris-HCl 7.6, 150 mM NaCl) at room temperature for 1 h. The antibody was diluted with fresh 5% BSA in TBST buffer (1:10000 dilution for FLAG, HA and β-Actin, 1:1000 dilution for others) and incubated with membrane (1 h room temperature for FLAG, HA and β-Actin, overnight 4° C. for others). Membrane was washed three times with TBST buffer and incubated with secondary antibody (1:5000 dilution in 5% BSA in TBST) at room temperature for 1 h. Membrane was washed three times with TBST buffer. The chemiluminescence signal in membrane was recorded after developing in ECL or ECL plus western blotting detection reagent using CL-XPosure film (Thermo Scientific). Relative band intensities were quantified using ImageJ.

[1] = target: T2, HA-DCAF16 and FLAG-FKBP12_NLS (Homo sapiens, UniProt P62942+Q9NXF7); test: Co-immunoprecipitation of HA-DCAF16 with FLAG-FKBP12_NLS (ternary complex) in HEK293T cells; format: cell-based; conditions: 5 μM, MG132 10 μM, 2 hours
T2 construct: expressed in transfected cells; host or cells: HEK293T stably expressing FLAG-FKBP12_NLS, transiently transfected with HA-DCAF16 (pRK5)
Experimental: as §1
Cells were collected and lysed in 1% NP-40 lysis buffer with complete protease inhibitor cocktail on ice for 10 min, followed by 5 pulses of sonication (40%, 4). After centrifugation at 16,000 g for 10 min at 4° C., the supernatant was collected. FLAG affinity gel (20 μL slurry per sample) was incubated with protein lysates at 4° C. for 1 h and washed four times with IP washing buffer. The affinity gel was heated at 95° C. for 10 min in 2× Laemmli sample buffer, followed by western blot analysis.

T1 sequence (Q9NXF7 whole entry): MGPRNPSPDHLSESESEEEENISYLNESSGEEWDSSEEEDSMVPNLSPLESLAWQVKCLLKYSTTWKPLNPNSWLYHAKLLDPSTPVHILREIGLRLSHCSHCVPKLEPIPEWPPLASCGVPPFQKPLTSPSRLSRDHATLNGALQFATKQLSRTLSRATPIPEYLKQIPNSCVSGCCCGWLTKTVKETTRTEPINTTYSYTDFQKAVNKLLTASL
T2 sequence (Q9NXF7 whole entry): as above
T2 sequence (P62942 2-108): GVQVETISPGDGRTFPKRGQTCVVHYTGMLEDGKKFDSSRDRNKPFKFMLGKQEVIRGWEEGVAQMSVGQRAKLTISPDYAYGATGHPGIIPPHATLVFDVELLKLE
T2 sequence (Q16531 whole entry partner): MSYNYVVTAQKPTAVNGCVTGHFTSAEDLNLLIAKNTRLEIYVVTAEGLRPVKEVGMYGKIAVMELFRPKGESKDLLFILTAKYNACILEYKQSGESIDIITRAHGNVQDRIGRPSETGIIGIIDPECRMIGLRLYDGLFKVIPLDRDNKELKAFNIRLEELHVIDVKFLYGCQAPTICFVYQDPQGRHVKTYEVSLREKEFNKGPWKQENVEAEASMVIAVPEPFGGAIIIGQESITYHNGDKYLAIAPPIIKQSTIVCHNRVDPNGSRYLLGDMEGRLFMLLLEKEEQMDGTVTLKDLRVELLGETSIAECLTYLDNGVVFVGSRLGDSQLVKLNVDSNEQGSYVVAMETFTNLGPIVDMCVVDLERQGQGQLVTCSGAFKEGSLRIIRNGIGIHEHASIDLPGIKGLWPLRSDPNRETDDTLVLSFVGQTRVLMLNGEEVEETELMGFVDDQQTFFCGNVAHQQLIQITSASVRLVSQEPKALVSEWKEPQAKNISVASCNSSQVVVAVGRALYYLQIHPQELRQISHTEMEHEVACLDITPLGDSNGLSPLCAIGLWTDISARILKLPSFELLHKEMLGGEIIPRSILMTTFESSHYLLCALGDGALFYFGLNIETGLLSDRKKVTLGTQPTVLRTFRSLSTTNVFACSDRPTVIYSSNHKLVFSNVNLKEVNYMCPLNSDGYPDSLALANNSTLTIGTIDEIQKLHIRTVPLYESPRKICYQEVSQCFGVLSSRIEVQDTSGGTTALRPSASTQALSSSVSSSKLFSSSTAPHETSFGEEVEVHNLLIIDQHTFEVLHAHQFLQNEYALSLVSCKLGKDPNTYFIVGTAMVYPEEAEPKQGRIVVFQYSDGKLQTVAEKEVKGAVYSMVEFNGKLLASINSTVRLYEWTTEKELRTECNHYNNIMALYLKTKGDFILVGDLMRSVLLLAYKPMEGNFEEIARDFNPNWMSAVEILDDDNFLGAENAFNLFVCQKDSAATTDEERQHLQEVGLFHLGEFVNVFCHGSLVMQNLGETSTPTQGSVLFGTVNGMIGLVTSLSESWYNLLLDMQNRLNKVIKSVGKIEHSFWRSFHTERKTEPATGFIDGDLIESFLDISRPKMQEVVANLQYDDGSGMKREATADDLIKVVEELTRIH
Sequence of FLAG-FKBP12_NLS (P62942 whole entry): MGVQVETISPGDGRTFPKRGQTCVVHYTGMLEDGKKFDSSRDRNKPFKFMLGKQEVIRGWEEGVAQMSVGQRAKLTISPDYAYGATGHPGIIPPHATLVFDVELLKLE

CCC(C)(C)C(=O)C(=O)N1CCCC[C@H]1C(=O)O[C@H](CCc1ccc(OC)c(OC)c1)c1cccc(NC(=O)COc2ccc3c(c2)CCCN3C(=O)CCl)c1 [KB02-PEG0-SLF, (R)-1-(3-(2-((1-(2-chloroacetyl)-1,2,3,4-tetrahydroquinolin-6-yl)oxy)acetamido)phenyl)-3-(3,4-dimethoxyphenyl)propyl (5)-1-(3,3-dimethyl-2-oxopentanoyl)piperidine-2-carboxylate]
modified DCAF16 tryptic peptide identified (DCAF16): tryptic peptide (aa 168-184) containing C173 and C177-179 | degradation of FLAG-FKBP12_NLS in MDA-MB-231 cells (FLAG-FKBP12_NLS): degradation of stably expressed FLAG-FKBP12_NLS | co-immunoprecipitation of HA-DCAF16 with FLAG-FKBP12_NLS [1]: co-immunoprecipitated with HA-DCAF16
